Measurements from PubChem BioAssay (NCI).
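Abbreviation: GI50, concentration required for 50% inhibition of growth. TGI is the concentration that stops growth completely.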 Numbered stars: 1 amine (or outer) side, 2 acyl side, 3 side chain; on linkers, the order of the positions; unused ones are H or OH. Bridge positions count the residues as written; N and C are the ends. Square brackets hold non-standard residues; d marks the D form. Peptide text beside a SMILES is read from it. I, II: the chains in the order shown. Actinocin(9to1) = Cc1c2oc3c(C)ccc(C(=O)[*:1])c3nc-2c(C(=O)[*:2])c(N)c1=O; aThr = C[C@H](O)[C@H](N)C(=O)O; NMeV = CN[C@H](C(=O)O)C(C)C; Sar = CNCC(=O)O

Assays:
Experiment in all cases: NCI anticancer screen, dose series, 384-well format
[1] = tested on: SW-620 colon
[2] = tested on: UO-31 renal
[3] = tested on: HCT-15 colon
[4] = tested on: EKVX NSCLC
[5] = tested on: IGROV1 ovarian
[6] = tested on: NCI/ADR-RES ovarian
[7] = tested on: 786-0 renal
[8] = tested on: OVCAR-4 ovarian
[9] = tested on: ACHN renal
[10] = tested on: A498 renal
[11] = tested on: A549 NSCLC
[12] = tested on: M14 melanoma
[13] = tested on: PC-3 prostate

Cc1c2oc3c(C)ccc(C(=O)N[C@@H]4C(=O)N[C@H](C(C)C)C(=O)N5CCC[C@H]5C(=O)N(C)CC(=O)N(C)[C@@H](C(C)C)C(=O)O[C@H]4C)c3nc-2c(C(=O)N[C@@H]2C(=O)N[C@H](C(C)C)C(=O)N3CCC[C@H]3C(=O)N(C)CC(=O)N(C)[C@@H](C(C)C)C(=O)O[C@H]2C)c(N)c1=O (I: [aThr][dV]P[Sar][NMeV] / II: [aThr][dV]P[Sar][NMeV]; ester I:1-I:C, II:1-II:C; linker I:N-II:N via Actinocin(9to1)) was tested, and the TGI [1] was < 35.1 nM, the GI50 [2] was < 11.9 nM and the TGI [2] was 26.8 nM. The TGI [3] was 69 nM, the TGI [4] was 43.5 nM and the TGI [5] was 13.8 nM. The GI50 [6] was 571 nM, the TGI [6] was 2830 nM and the TGI [7] was 18.8 nM. For the same compound, the TGI [8] was < 26.6 nM, the TGI [9] was 16.5 nM and the TGI [10] was < 16.5 nM. The TGI [11] was 1370 nM, the TGI [12] was < 11.2 nM and the TGI [13] was 57.1 nM.
